From publication PMC8699473, “An Easily Expandable Multi-Drug LC-MS Assay for the Simultaneous Quantification of 57 Oral Antitumor Drugs in Human Plasma” (Cancers, 2021)

Test: Long-term stability in spiked pooled human plasma

SMILES | Long-term stability, 1 month, -20°C Accuracy [%] (validation standard 2xLLOV) | Long-term stability, 1 month, -80°C Accuracy [%] (validation standard 2xLLOV) | Long-term stability, 2 month, -20°C Accuracy [%] (validation standard 2xLLOV) | Long-term stability, 2 month, -80°C Accuracy [%] (validation standard 2xLLOV) | Long-term stability, 3 month, -20°C Accuracy [%] (validation standard 2xLLOV) | Long-term stability, 3 month, -80°C Accuracy [%] (validation standard 2xLLOV) | Long-term stability, 6 weeks, 4°C, without daylight Accuracy [%] (validation standard 2xLLOV) | Long-term stability, 1 month, -20°C Accuracy [%] (validation standard LLOV) | Long-term stability, 1 month, -80°C Accuracy [%] (validation standard LLOV) | Long-term stability, 2 month, -20°C Accuracy [%] (validation standard LLOV) | Long-term stability, 2 month, -80°C Accuracy [%] (validation standard LLOV) | Long-term stability, 3 month, -20°C Accuracy [%] (validation standard LLOV) | Long-term stability, 3 month, -80°C Accuracy [%] (validation standard LLOV) | Long-term stability, 6 weeks, 4°C, without daylight Accuracy [%] (validation standard LLOV) | Long-term stability, 1 month, -20°C Accuracy [%] (validation standard MOV) | Long-term stability, 1 month, -80°C Accuracy [%] (validation standard MOV) | Long-term stability, 2 month, -20°C Accuracy [%] (validation standard MOV) | Long-term stability, 2 month, -80°C Accuracy [%] (validation standard MOV) | Long-term stability, 3 month, -20°C Accuracy [%] (validation standard MOV) | Long-term stability, 3 month, -80°C Accuracy [%] (validation standard MOV) | further results
Cc1cc(Nc2ncc(Cl)c(Nc3ccccc3S(=O)(=O)C(C)C)n2)c(OC(C)C)cc1C1CCNCC1 [Ceritinib] | 94.3% | 89.5% | 94.4% | 96.4% | 91.8% | 93.4% | 77.8% | 101.5% | 96.1% | 99.7% | 103.7% | 96.9% | 100.3% | 78.9% | 93.3% | 93.7% | 94.6% | 95.5% | 94.1% | 95.7% | Long-term stability, 6 weeks, 4°C, without daylight Accuracy [%] (validation standard MOV): 104.9%; Long-term stability, 1 month, -20°C Accuracy [%] (validation standard ULOV): 97.3%; Long-term stability, 1 month, -80°C Accuracy [%] (validation standard ULOV): 94.0%; Long-term stability, 2 month, -20°C Accuracy [%] (validation standard ULOV): 99.1%; Long-term stability, 2 month, -80°C Accuracy [%] (validation standard ULOV): 100.5%; Long-term stability, 3 month, -20°C Accuracy [%] (validation standard ULOV): 101.8%; Long-term stability, 3 month, -80°C Accuracy [%] (validation standard ULOV): 100.0%; Long-term stability, 6 weeks, 4°C, without daylight Accuracy [%] (validation standard ULOV): 97.9%
O=C(c1ccc(F)c(F)c1Nc1ccc(I)cc1F)N1CC(O)([C@@H]2CCCCN2)C1 [Cobimetinib] | 100.8% | 93.9% | 98.0% | 103.4% | 99.0% | 97.6% | 94.8% | 101.1% | 99.0% | 99.0% | 97.9% | 101.3% | 100.3% | 94.5% | 98.9% | 96.8% | 100.8% | 103.3% | 99.2% | 98.4% | Long-term stability, 6 weeks, 4°C, without daylight Accuracy [%] (validation standard MOV): 108.3%; Long-term stability, 1 month, -20°C Accuracy [%] (validation standard ULOV): 100.6%; Long-term stability, 1 month, -80°C Accuracy [%] (validation standard ULOV): 97.3%; Long-term stability, 2 month, -20°C Accuracy [%] (validation standard ULOV): 104.5%; Long-term stability, 2 month, -80°C Accuracy [%] (validation standard ULOV): 103.6%; Long-term stability, 3 month, -20°C Accuracy [%] (validation standard ULOV): 100.6%; Long-term stability, 3 month, -80°C Accuracy [%] (validation standard ULOV): 98.3%; Long-term stability, 6 weeks, 4°C, without daylight Accuracy [%] (validation standard ULOV): 102.4%
CNC(=O)c1cc(Oc2ccc(NC(=O)Nc3ccc(Cl)c(C(F)(F)F)c3)c(F)c2)ccn1 [Regorafenib] | 101.2% | 104.0% | 105.6% | 104.3% | 90.7% | 103.7% | 80.6% | 105.4% | 102.9% | 106.3% | 104.7% | 94.0% | 105.1% | 79.3% | 101.6% | 106.3% | 105.8% | 112.2% | 97.1% | 100.4% | Long-term stability, 6 weeks, 4°C, without daylight Accuracy [%] (validation standard MOV): 101.0%; Long-term stability, 1 month, -20°C Accuracy [%] (validation standard ULOV): 104.7%; Long-term stability, 1 month, -80°C Accuracy [%] (validation standard ULOV): 103.8%; Long-term stability, 2 month, -20°C Accuracy [%] (validation standard ULOV): 108.5%; Long-term stability, 2 month, -80°C Accuracy [%] (validation standard ULOV): 107.0%; Long-term stability, 3 month, -20°C Accuracy [%] (validation standard ULOV): 92.9%; Long-term stability, 3 month, -80°C Accuracy [%] (validation standard ULOV): 103.1%; Long-term stability, 6 weeks, 4°C, without daylight Accuracy [%] (validation standard ULOV): 95.5%
COc1cc2ncnc(Nc3ccc(F)c(Cl)c3)c2cc1NC(=O)/C=C/CN1CCCCC1 [Dacomitinib] | 94.4% | 91.2% | 96.1% | 107.1% | 89.4% | 94.7% | 62.3% | 86.5% | 87.2% | 96.8% | 105.1% | 83.4% | 96.1% | 61.0% | 91.7% | 95.2% | 95.1% | 99.2% | 90.9% | 99.4% | Long-term stability, 6 weeks, 4°C, without daylight Accuracy [%] (validation standard MOV): 79.1%; Long-term stability, 1 month, -20°C Accuracy [%] (validation standard ULOV): 93.0%; Long-term stability, 1 month, -80°C Accuracy [%] (validation standard ULOV): 93.2%; Long-term stability, 2 month, -20°C Accuracy [%] (validation standard ULOV): 96.3%; Long-term stability, 2 month, -80°C Accuracy [%] (validation standard ULOV): 99.6%; Long-term stability, 3 month, -20°C Accuracy [%] (validation standard ULOV): 90.3%; Long-term stability, 3 month, -80°C Accuracy [%] (validation standard ULOV): 97.6%; Long-term stability, 6 weeks, 4°C, without daylight Accuracy [%] (validation standard ULOV): 77.8%
